Test results from ChEMBL document CHEMBL1150207, “Cytotoxicities of some flavonoid analogues” (1991).
In brackets after ≈: the same amount, converted by molar mass.

Experiments:
Assay type in all cases: functional
MCF7 = test: Cytotoxicity against human MCF7 cells after 6 days by MTT assay; settings: MCF7, 144 h, read-out: ED50 (the source's name)
A549 = test: Cytotoxicity against human A549 cells after 6 days by MTT assay; settings: A549, 144 h, read-out: ED50 (the source's name)
Malme-3M = test: Cytotoxicity against human MALME-3M cells after 6 days by MTT assay; settings: 144 h, read-out: ED50 (the source's name)
SK-MEL = test: Cytotoxicity against human SK-MEL cells after 6 days by MTT assay; settings: 144 h, read-out: ED50 (the source's name)
HT-29 = test: Cytotoxicity against human HT-29 cells after 6 days by MTT assay; settings: HT-29, 144 h, read-out: ED50 (the source's name)

Structure (SMILES) | EC50 (MCF7) [µg/mL] | EC50 (A549) [µg/mL] | EC50 (Malme-3M) [µg/mL] | EC50 (SK-MEL) [µg/mL] | EC50 (HT-29) [µg/mL]
O=c1cc(-c2cccc(O)c2)oc2c(O)c(O)ccc12 | 3.71 (≈ 13.7 µM) | 4.65 (≈ 17.2 µM) | 4.8 (≈ 17.8 µM) | 3.66 (≈ 13.5 µM) | 4.18 (≈ 15.5 µM)
O=c1cc(-c2cccc(O)c2)oc2cc(O)ccc12 | > 25 | > 25 | > 25 | 5.11 (≈ 20.1 µM) | > 25
COc1cc(-c2cc(=O)c3c(O)cccc3o2)cc(OC)c1O | 0.51 (≈ 1.62 µM) | 0.74 (≈ 2.35 µM) | > 25 | > 25 | > 25
CC(C)(C)[Si](C)(C)Oc1ccc(-c2cc(=O)c3ccc(O)cc3o2)cc1 | 4.66 (≈ 12.6 µM) | 6.45 (≈ 17.5 µM) | > 10 | 5.64 (≈ 15.3 µM) | 3.61 (≈ 9.8 µM)
COc1cc(-c2cc(=O)c3cc(O)ccc3o2)cc(OC)c1O | > 25 | > 25 | > 25 | 5.68 (≈ 18.1 µM) | > 25
COc1cc(-c2cc(=O)c3ccc(O)cc3o2)cc(OC)c1O | > 25 | > 25 | > 25 | > 25 | 6.5 (≈ 20.7 µM)
COc1ccc2oc(-c3cc(OC)c(OC)c(OC)c3)cc(=O)c2c1 | > 25 | > 25 | > 25 | > 25 | > 25
COc1cc(-c2cc(=O)c3ccc(OC(C)=O)cc3o2)cc(OC)c1O | > 25 | > 25 | > 25 | > 25 | > 25
COc1cc(-c2cc(=O)c3ccc(OC(C)=O)c(OC(C)=O)c3o2)cc(OC)c1O[Si](C)(C)C(C)(C)C | > 25 | > 25 | 0.31 (≈ 0.586 µM) | 0.14 (≈ 0.265 µM) | > 25
COc1cc(-c2cc(=O)c3ccc(O)c(O)c3o2)cc(OC)c1O | > 25 | > 25 | > 25 | 6.33 (≈ 19.2 µM) | 5.12 (≈ 15.5 µM)
O=c1cc(-c2cccc(O)c2)oc2ccc(O)cc12 | > 25 | > 25 | > 25 | > 25 | > 25
COc1cc(-c2cc(=O)c3ccc(O)c(O)c3o2)cc(OC)c1O[Si](C)(C)C(C)(C)C | 0.31 (≈ 0.697 µM) | 3.31 (≈ 7.45 µM) | 0.2 (≈ 0.45 µM) | 0.11 (≈ 0.247 µM) | 0.34 (≈ 0.765 µM)
O=c1cc(-c2cccc(O)c2)oc2cccc(O)c12 | 6.93 (≈ 27.3 µM) | 3.24 (≈ 12.7 µM) | > 10 | 3.09 (≈ 12.2 µM) | 3.47 (≈ 13.6 µM)
COc1cc(-c2cc(=O)c3ccc(OC(C)=O)cc3o2)cc(OC)c1O[Si](C)(C)C(C)(C)C | 4.19 (≈ 8.9 µM) | 2.9 (≈ 6.16 µM) | 2.95 (≈ 6.27 µM) | 0.8 (≈ 1.7 µM) | 1.94 (≈ 4.12 µM)
COc1ccc2c(=O)cc(-c3cc(OC)c(OC)c(OC)c3)oc2c1 | > 25 | > 25 | > 25 | > 25 | > 25
